In US12077503B2, “Substituted cyclic amides and their use as herbicides” (FMC CORPORATION, priority 2015, dated 2024):

What was measured:
Format in all cases: in vivo
[1] = tested on: barnyardgrass (Echinochloa crus-galli); test: Test G Pre-Emergence Protocol; settings: Echinochloa crus-galli, pre-emergence, 312 h, evaluated after 13 days; for pest or weed control at 15.625 g/ha: 15.625 g ai/ha, read-out: Barnyard grass damage rating (100=total damage to plant; 0=no damage to plant); for pest or weed control at 62.5 g/ha: 62.5 g ai/ha, 100=total damage to plant, 0=no damage to plant, read-out: plant damage rating, Barnyardgrass; for pest or weed control at 250 g/ha: 250 g ai/ha, read-out: Barnyardgrass damage rating (100=total damage to plant; 0=no damage to plant)
Outline: (§1)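 Glasshouse pre-emergence test: soil-sown seeds, sprayed after 1 d at 15.625, 62.5 or 250 g/ha. Conditions 24/16° C day/night, 14 h light, 65% humidity, watering twice daily. Rating 13 d post-spray (100 = total damage).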

corn (Zea mays) [2] = test: Test G Pre-Emergence Protocol; settings: Zea mays, pre-emergence, 312 h, evaluated after 13 days; for plant injury at 15.625 g/ha: 15.625 g ai/ha; for plant injury at 15.625 g/ha / plant injury at 250 g/ha: read-out: Corn damage rating (100=total damage to plant; 0=no damage to plant); for plant injury at 62.5 g/ha: 62.5 g ai/ha, 100=total damage to plant, 0=no damage to plant, read-out: plant damage rating, Corn; for plant injury at 250 g/ha: 250 g ai/ha
Outline: as §1

[3] = tested on: giant foxtail (Setaria faberi); test: Test G Pre-Emergence Protocol; settings: Setaria faberi, pre-emergence, 312 h, evaluated after 13 days; for pest or weed control at 15.625 g/ha: 15.625 g ai/ha; for pest or weed control at 15.625 g/ha / pest or weed control at 250 g/ha: read-out: Foxtail, Giant damage rating (100=total damage to plant; 0=no damage to plant); for pest or weed control at 62.5 g/ha: 62.5 g ai/ha, 100=total damage to plant, 0=no damage to plant, read-out: plant damage rating, Foxtail, Giant; for pest or weed control at 250 g/ha: 250 g ai/ha
Outline: as §1

[4] = tested on: velvetleaf (Abutilon theophrasti); test: Test G Pre-Emergence Protocol; settings: Abutilon theophrasti, pre-emergence, 312 h, evaluated after 13 days; for pest or weed control at 15.625 g/ha: 15.625 g ai/ha; for pest or weed control at 15.625 g/ha / pest or weed control at 250 g/ha: read-out: Velvetleaf damage rating (100=total damage to plant; 0=no damage to plant); for pest or weed control at 62.5 g/ha: 62.5 g ai/ha, 100=total damage to plant, 0=no damage to plant, read-out: plant damage rating, Velvetleaf; for pest or weed control at 250 g/ha: 250 g ai/ha
Outline: as §1

[5] = tested on: ivy-leaved morning glory (Ipomoea hederacea); test: Test G Pre-Emergence Protocol; settings: Ipomoea, pre-emergence, 312 h, evaluated after 13 days; for pest or weed control at 15.625 g/ha: 15.625 g ai/ha, read-out: Morning-glory, Ivy-leaved damage rating (100=total damage to plant; 0=no damage to plant); for pest or weed control at 62.5 g/ha: 62.5 g ai/ha, 100=total damage to plant, 0=no damage to plant, read-out: plant damage rating, Morningglory, Ivy-leaved; for pest or weed control at 250 g/ha: 250 g ai/ha, read-out: Morningglory, Ivy-leaved damage rating (100=total damage to plant; 0=no damage to plant)
Outline: as §1

[6] = tested on: redroot pigweed (Amaranthus retroflexus); test: Test G Pre-Emergence Protocol; settings: Amaranthus retroflexus, pre-emergence, 312 h, evaluated after 13 days; for pest or weed control at 15.625 g/ha: 15.625 g ai/ha; for pest or weed control at 15.625 g/ha / pest or weed control at 250 g/ha: read-out: Pigweed, Redroot damage rating (100=total damage to plant; 0=no damage to plant); for pest or weed control at 62.5 g/ha: 62.5 g ai/ha, 100=total damage to plant, 0=no damage to plant, read-out: plant damage rating, Pigweed, Redroot; for pest or weed control at 250 g/ha: 250 g ai/ha
Outline: as §1

[7] = tested on: barnyardgrass (Echinochloa crus-galli); test: Test G Post-Emergence Protocol; settings: Echinochloa crus-galli, post-emergence, 312 h; for pest or weed control at 15.625 g/ha: 15.625 g ai/ha, evaluated after 13 days (100=total damage to plant; 0=no damage to plant), read-out: Barnyardgrass damage rating; for pest or weed control at 62.5 g/ha: 62.5 g ai/ha, read-out: Barnyardgrass damage rating (100=total damage to plant; 0=no damage to plant); for pest or weed control at 62.5 g/ha / pest or weed control at 250 g/ha: evaluated after 13 days; for pest or weed control at 250 g/ha: 250 g ai/ha, read-out: damage to plant, Barnyardgrass (100=total damage to plant; 0=no damage to plant)
Outline: (§2)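 Seedlings grown 8 days in soil in a glasshouse (24/16 °C day/night, 14 h light, 65% humidity) were sprayed post-emergence with compound in acetone/water 50:50 plus 0.5% Tween 20 at 15.625, 62.5 or 250 g/ha. Damage was scored after 13 days on a 0–100 scale (100 = total damage).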

corn (Zea mays) [8] = test: Test G Post-Emergence Protocol; settings: Zea mays, post-emergence, 312 h; for plant injury at 15.625 g/ha: 15.625 g ai/ha, evaluated after 13 days (100=total damage to plant; 0=no damage to plant), read-out: Corn damage rating; for plant injury at 62.5 g/ha: 62.5 g ai/ha, read-out: Corn damage rating (100=total damage to plant; 0=no damage to plant); for plant injury at 62.5 g/ha / plant injury at 250 g/ha: evaluated after 13 days; for plant injury at 250 g/ha: 250 g ai/ha, read-out: damage to plant, Corn (100=total damage to plant; 0=no damage to plant)
Outline: as §2

[9] = tested on: giant foxtail (Setaria faberi); test: Test G Post-Emergence Protocol; settings: Setaria faberi, post-emergence, 312 h; for pest or weed control at 15.625 g/ha: 15.625 g ai/ha, evaluated after 13 days (100=total damage to plant; 0=no damage to plant), read-out: Foxtail, Giant damage rating; for pest or weed control at 62.5 g/ha: 62.5 g ai/ha, read-out: Foxtail, Giant damage rating (100=total damage to plant; 0=no damage to plant); for pest or weed control at 62.5 g/ha / pest or weed control at 250 g/ha: evaluated after 13 days; for pest or weed control at 250 g/ha: 250 g ai/ha, read-out: damage to plant, Foxtail, Giant (100=total damage to plant; 0=no damage to plant)
Outline: as §2

[10] = tested on: velvetleaf (Abutilon theophrasti); test: Test G Post-Emergence Protocol; settings: Abutilon theophrasti, post-emergence, 312 h; for pest or weed control at 15.625 g/ha: 15.625 g ai/ha, evaluated after 13 days (100=total damage to plant; 0=no damage to plant), read-out: Velvetleaf damage rating; for pest or weed control at 62.5 g/ha: 62.5 g ai/ha, read-out: Velvetleaf damage rating (100=total damage to plant; 0=no damage to plant); for pest or weed control at 62.5 g/ha / pest or weed control at 250 g/ha: evaluated after 13 days; for pest or weed control at 250 g/ha: 250 g ai/ha, read-out: damage to plant, Velvetleaf (100=total damage to plant; 0=no damage to plant)
Outline: as §2

[11] = tested on: ivy-leaved morning glory (Ipomoea hederacea); test: Test G Post-Emergence Protocol; settings: Ipomoea, post-emergence, 312 h; for pest or weed control at 15.625 g/ha: 15.625 g ai/ha, evaluated after 13 days (100=total damage to plant; 0=no damage to plant), read-out: Morningglory, Ivy-leaved damage rating; for pest or weed control at 62.5 g/ha: 62.5 g ai/ha, read-out: Morningglory, Ivy-leaved damage rating (100=total damage to plant; 0=no damage to plant); for pest or weed control at 62.5 g/ha / pest or weed control at 250 g/ha: evaluated after 13 days; for pest or weed control at 250 g/ha: 250 g ai/ha, read-out: damage to plant, Morningglory, Ivy-leaved (100=total damage to plant; 0=no damage to plant)
Outline: as §2

[12] = tested on: redroot pigweed (Amaranthus retroflexus); test: Test G Post-Emergence Protocol; settings: Amaranthus retroflexus, post-emergence, 312 h; for pest or weed control at 15.625 g/ha: 15.625 g ai/ha, evaluated after 13 days (100=total damage to plant; 0=no damage to plant), read-out: Pigweed, Redroot damage rating; for pest or weed control at 62.5 g/ha: 62.5 g ai/ha, read-out: Pigweed, Redroot damage rating (100=total damage to plant; 0=no damage to plant); for pest or weed control at 62.5 g/ha / pest or weed control at 250 g/ha: evaluated after 13 days; for pest or weed control at 250 g/ha: 250 g ai/ha, read-out: damage to plant, Pigweed, Redroot (100=total damage to plant; 0=no damage to plant)
Outline: as §2

Row | SMILES | pest or weed control at 15.625 g/ha [1] [%] | pest or weed control at 62.5 g/ha [1] [%] | pest or weed control at 250 g/ha [1] [%] | plant injury at 15.625 g/ha (corn (Zea mays) [2]) [%] | plant injury at 62.5 g/ha (corn (Zea mays) [2]) [%] | plant injury at 250 g/ha (corn (Zea mays) [2]) [%] | pest or weed control at 15.625 g/ha [3] [%] | pest or weed control at 62.5 g/ha [3] [%] | pest or weed control at 250 g/ha [3] [%] | pest or weed control at 15.625 g/ha [4] [%] | pest or weed control at 62.5 g/ha [4] [%] | pest or weed control at 250 g/ha [4] [%] | pest or weed control at 15.625 g/ha [5] [%] | pest or weed control at 62.5 g/ha [5] [%] | pest or weed control at 250 g/ha [5] [%] | pest or weed control at 15.625 g/ha [6] [%] | pest or weed control at 62.5 g/ha [6] [%] | pest or weed control at 250 g/ha [6] [%] | pest or weed control at 15.625 g/ha [7] [%] | pest or weed control at 62.5 g/ha [7] [%] | further results
1 | Cc1c(NC(=O)[C@H]2C(=O)N(C)C[C@@H]2c2ccc(C(F)(F)F)cc2)cccc1C(F)(F)F (racemic) [Compound 1424] | 0 | 10 | 50 | 0 | 0 | 0 | 0 | 40 | 70 | 0 | 0 | 0 | 0 | 0 | 0 | 0 | 0 | 0 | 0 | 0 | pest or weed control at 250 g/ha [7]: 10%; plant injury at 15.625 g/ha (corn (Zea mays) [8]): 0%; plant injury at 62.5 g/ha (corn (Zea mays) [8]): 0%; plant injury at 250 g/ha (corn (Zea mays) [8]): 10%; pest or weed control at 15.625 g/ha [9]: 0%; pest or weed control at 62.5 g/ha [9]: 0%; pest or weed control at 250 g/ha [9]: 20%; pest or weed control at 15.625 g/ha [10]: 0%; pest or weed control at 62.5 g/ha [10]: 0%; pest or weed control at 250 g/ha [10]: 0%; pest or weed control at 15.625 g/ha [11]: 0%; pest or weed control at 62.5 g/ha [11]: 0%; pest or weed control at 250 g/ha [11]: 0%; pest or weed control at 15.625 g/ha [12]: 10%; pest or weed control at 62.5 g/ha [12]: 20%; pest or weed control at 250 g/ha [12]: 20%
2 | C=CCc1c(Cl)cccc1NC(=O)[C@H]1C(=O)N(C)C[C@H]1c1ccc(C(F)(F)F)cc1 (racemic) [Compound 1439] | 0 | 0 | 40 | 0 | 0 | 0 | 0 | 0 | 50 | 0 | 0 | 0 | 0 | 0 | 0 | 0 | 0 | 0 | 0 | 0 | pest or weed control at 250 g/ha [7]: 10%; plant injury at 15.625 g/ha (corn (Zea mays) [8]): 10%; plant injury at 62.5 g/ha (corn (Zea mays) [8]): 10%; plant injury at 250 g/ha (corn (Zea mays) [8]): 10%; pest or weed control at 15.625 g/ha [9]: 0%; pest or weed control at 62.5 g/ha [9]: 20%; pest or weed control at 250 g/ha [9]: 60%; pest or weed control at 15.625 g/ha [10]: 0%; pest or weed control at 62.5 g/ha [10]: 0%; pest or weed control at 250 g/ha [10]: 0%; pest or weed control at 15.625 g/ha [11]: 0%; pest or weed control at 62.5 g/ha [11]: 0%; pest or weed control at 250 g/ha [11]: 0%; pest or weed control at 15.625 g/ha [12]: 0%; pest or weed control at 62.5 g/ha [12]: 0%; pest or weed control at 250 g/ha [12]: 40%
3 | CN1C[C@H](c2ccc(C(F)(F)F)cc2)[C@@H](C(=O)Nc2ccc(F)c(C(F)(F)F)c2)C1=O (racemic) [Compound 1443] | 0 | 0 | 0 | 0 | 0 | 0 | 0 | 0 | 0 | 0 | 0 | 0 | 0 | 0 | 0 | 0 | 0 | 0 | 0 | 0 | pest or weed control at 250 g/ha [7]: 0%; plant injury at 15.625 g/ha (corn (Zea mays) [8]): 0%; plant injury at 62.5 g/ha (corn (Zea mays) [8]): 0%; plant injury at 250 g/ha (corn (Zea mays) [8]): 0%; pest or weed control at 15.625 g/ha [9]: 0%; pest or weed control at 62.5 g/ha [9]: 0%; pest or weed control at 250 g/ha [9]: 0%; pest or weed control at 15.625 g/ha [10]: 0%; pest or weed control at 62.5 g/ha [10]: 0%; pest or weed control at 250 g/ha [10]: 0%; pest or weed control at 15.625 g/ha [11]: 0%; pest or weed control at 62.5 g/ha [11]: 0%; pest or weed control at 250 g/ha [11]: 0%; pest or weed control at 15.625 g/ha [12]: 0%; pest or weed control at 62.5 g/ha [12]: 0%; pest or weed control at 250 g/ha [12]: 0%
